One experiment deals with NRAS Q61K (Homo sapiens, UniProt P01111+P62937, Q61K). The experiment is described as follows: Disruption of BRAF RBD interaction with Ras (FRET / MOA assay, with Cyclophilin A). The class given is biochemical. The note with it: NRAS Q61K; read-out: NRAS Q61K FRET data IC50. The method, boiled down: (§1)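 TR-FRET in 25 mM HEPES pH 7.3, 100 mM NaCl, 5 mM MgCl2, 0.1% BSA: 25 μM Cyclophilin A, 12.5 nM His6-Ras-GMPPNP, 50 nM GST-BRAF RBD with compound (10-point 3-fold series from 30 μM), 3 h at 25° C. Anti-His Eu/anti-GST APC added, 1.5 h more; IC50 from decreased FRET ratio versus DMSO.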
NRAS Q61K, sequence (P01111 whole entry Q61K): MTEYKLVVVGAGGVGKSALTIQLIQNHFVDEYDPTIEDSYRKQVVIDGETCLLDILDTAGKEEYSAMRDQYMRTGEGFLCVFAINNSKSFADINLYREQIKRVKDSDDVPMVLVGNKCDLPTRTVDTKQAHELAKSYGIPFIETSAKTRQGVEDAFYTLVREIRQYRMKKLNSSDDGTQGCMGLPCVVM
NRAS Q61K, sequence (P62937 whole entry): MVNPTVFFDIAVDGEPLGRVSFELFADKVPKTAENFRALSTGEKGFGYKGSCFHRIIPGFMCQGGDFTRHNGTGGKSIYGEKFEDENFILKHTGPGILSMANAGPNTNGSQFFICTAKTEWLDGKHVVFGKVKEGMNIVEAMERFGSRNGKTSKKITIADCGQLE

A further experiment addresses KRAS Q61H (Homo sapiens, UniProt P01116+P62937, Q61H). Described as above. The class given is biochemical. The note with it: KRAS Q61H; read-out: KRAS Q61H FRET data IC50. A digest of the protocol:
as §1

The next experiment addresses NRAS Q61R (Homo sapiens, UniProt P01111+P62937, Q61R). The description is as above. The experiment is classed as biochemical. Particulars: NRAS Q61R; read-out: NRAS Q61R FRET data IC50. A digest of the protocol:
as §1

The target in another experiment is NRAS WT (Homo sapiens, UniProt P01111+P62937). The experiment is described as above. The experiment is classed as biochemical. The note with it: NRAS WT; read-out: NRAS WT FRET data IC50. A digest of the protocol:
as §1

Another experiment has as its target KRAS G12C (Homo sapiens, UniProt P01116+P62937, G12C). Described as above. The experiment is classed as biochemical. The method, boiled down: (§2)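 IC50 values reflect loss of K-Ras binding to BRAF RBD, read as a lowered TR-FRET ratio compared with DMSO, driven by compound-mediated K-Ras:Cyclophilin A complex formation. Compound top dose 30 μM final, 3-fold steps, 3 h incubation at 25 °C before a 1.5 h antibody step.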

A further experiment deals with NRAS G12C (Homo sapiens, UniProt P01111+P62937, G12C). The description is as above. The experiment is classed as biochemical.
NRAS G12C, sequence (P01111 whole entry G12C): as the sequence (P01111 whole entry Q61K) above, with G12C, K61Q counted along it
NRAS G12C, sequence (P62937 whole entry): as the sequence (P62937 whole entry) above
The next experiment deals with KRAS G12D (Homo sapiens, UniProt P01116+P62937, G12D). Described as above. The class given is biochemical. The method, boiled down: as §2
KRAS G12D, sequence (P01116 1-169 isoform P01116-2 G12D limits assumed): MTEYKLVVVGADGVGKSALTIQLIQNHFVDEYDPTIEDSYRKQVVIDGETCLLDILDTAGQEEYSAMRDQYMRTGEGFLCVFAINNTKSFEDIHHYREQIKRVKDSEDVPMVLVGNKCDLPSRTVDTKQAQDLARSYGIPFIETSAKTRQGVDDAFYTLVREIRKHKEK
KRAS G12D, sequence (P62937 whole entry): as the sequence (P62937 whole entry) above
Another experiment deals with KRAS G13D (Homo sapiens, UniProt P01116+P62937, G13D). Described as above. The experiment is classed as biochemical. The method, boiled down: as §2
KRAS G13D, sequence (P01116 1-169 isoform P01116-2 G13D limits assumed): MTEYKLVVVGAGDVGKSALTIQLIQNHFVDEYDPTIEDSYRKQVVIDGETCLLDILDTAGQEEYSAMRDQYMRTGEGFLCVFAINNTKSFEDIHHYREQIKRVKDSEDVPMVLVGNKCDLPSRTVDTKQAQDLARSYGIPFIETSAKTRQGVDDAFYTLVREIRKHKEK
KRAS G13D, sequence (P62937 whole entry): as the sequence (P62937 whole entry) above
The target in the next experiment is KRAS G13C (Homo sapiens, UniProt P01116+P62937, G13C). The experiment is described as above. The experiment is classed as biochemical. The method, boiled down:
as §2

In another experiment the target is KRAS G12S (Homo sapiens, UniProt P01116+P62937, G12S). The experiment is described as above. The experiment is classed as biochemical. A digest of the protocol:
as §2

A further experiment addresses KRAS WT (Homo sapiens, UniProt P01116+P62937). Described as above. The class given is biochemical. The method, boiled down:
as §2

The target of the next experiment is KRAS G12V (Homo sapiens, UniProt P01116+P62937, G12V). Described as above. The class given is biochemical. The method, boiled down:
as §2

The next experiment deals with NCI-H358 (K-Ras G12C). The experiment is described as follows: CellTiter-Glo cell viability assay, 5-day treatment. The experiment is classed as cell-based. The note with it: Homo sapiens, NCI-H358, 120 h, 5-day treatment; read-out: H358 Cell Viability assay data (K-Ras G12C, IC50). The method, boiled down: (§3)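 Seeded cells received test compound by direct dispensing. On day 5 the plates sat at room temperature approximately 30 minutes, then luminescence was measured. Data were normalized to DMSO and curve-fitted with four parameters.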

In a further experiment the test system is Capan-1 (K-Ras G12V). Described as above. The class given is cell-based. Particulars: Homo sapiens, CAPAN-1, 120 h, 5-day treatment; read-out: Capan-1 Cell Viability assay data (K-Ras G12V, IC50). A digest of the protocol: as §3
The mark [1] stands for this setting: read-out: KRAS G12C FRET data, IC50.
The mark [2] stands for this setting: NRAS G12C, read-out: NRAS G12C FRET data IC50.
The mark [3] stands for this setting: read-out: KRAS G12D FRET data, IC50.
Setting [4] is: KRAS G13D, read-out: KRAS G13D FRET data IC50.
Where [5] appears, read: read-out: KRAS G13C FRET data, IC50.
The mark [6] stands for this setting: read-out: KRAS G12S FRET data, IC50.
Setting [7] is: KRAS WT, read-out: KRAS WT FRET data IC50.
Where [8] appears, read: KRAS G12V, read-out: KRAS G12V FRET data IC50.

Read-outs that look alike come from different tables or passages of the source.

KRAS G12C, sequence (P01116 1-169 isoform P01116-2 G12C): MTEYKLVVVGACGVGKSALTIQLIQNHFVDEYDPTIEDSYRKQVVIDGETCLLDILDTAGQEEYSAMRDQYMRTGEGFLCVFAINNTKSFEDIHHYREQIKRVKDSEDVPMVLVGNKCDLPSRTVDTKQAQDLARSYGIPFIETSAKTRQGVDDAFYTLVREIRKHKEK
KRAS G12C, sequence (P62937 whole entry): as the sequence (P62937 whole entry) above
KRAS G13C, sequence (P01116 1-169 isoform P01116-2 G13C): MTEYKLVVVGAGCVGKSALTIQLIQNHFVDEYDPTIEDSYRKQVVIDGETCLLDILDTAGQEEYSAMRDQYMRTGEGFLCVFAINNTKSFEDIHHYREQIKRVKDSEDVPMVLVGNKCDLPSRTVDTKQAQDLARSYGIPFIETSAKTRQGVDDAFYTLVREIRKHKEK
KRAS G13C, sequence (P62937 whole entry): as the sequence (P62937 whole entry) above
NRAS Q61R, sequence (P01111 whole entry Q61R): as the sequence (P01111 whole entry Q61K) above, with K61R counted along it
NRAS Q61R, sequence (P62937 whole entry): as the sequence (P62937 whole entry) above
KRAS G12V, sequence (P01116 1-169 isoform P01116-2 G12V limits assumed): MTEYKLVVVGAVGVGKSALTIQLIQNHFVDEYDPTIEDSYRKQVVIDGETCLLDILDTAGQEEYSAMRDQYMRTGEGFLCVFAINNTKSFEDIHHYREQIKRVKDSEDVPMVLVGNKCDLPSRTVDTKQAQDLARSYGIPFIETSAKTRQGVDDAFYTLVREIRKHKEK
KRAS G12V, sequence (P62937 whole entry): as the sequence (P62937 whole entry) above
KRAS Q61H, sequence (P01116 1-169 isoform P01116-2 Q61H limits assumed): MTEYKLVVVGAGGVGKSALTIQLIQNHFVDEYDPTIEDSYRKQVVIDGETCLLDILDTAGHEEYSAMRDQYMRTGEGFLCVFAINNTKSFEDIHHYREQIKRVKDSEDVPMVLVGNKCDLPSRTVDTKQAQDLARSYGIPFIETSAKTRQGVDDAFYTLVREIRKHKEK
KRAS Q61H, sequence (P62937 whole entry): as the sequence (P62937 whole entry) above
NRAS WT, sequence (P01111 whole entry): as the sequence (P01111 whole entry Q61K) above, with K61Q counted along it
NRAS WT, sequence (P62937 whole entry): as the sequence (P62937 whole entry) above
KRAS WT, sequence (P01116 1-169 isoform P01116-2 limits assumed): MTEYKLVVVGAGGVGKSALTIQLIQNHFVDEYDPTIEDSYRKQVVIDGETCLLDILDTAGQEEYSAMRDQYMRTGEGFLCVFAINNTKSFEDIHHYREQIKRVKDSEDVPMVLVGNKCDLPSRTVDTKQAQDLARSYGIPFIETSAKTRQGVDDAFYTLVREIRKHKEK
KRAS WT, sequence (P62937 whole entry): as the sequence (P62937 whole entry) above
KRAS G12S, sequence (P01116 1-169 isoform P01116-2 G12S limits assumed): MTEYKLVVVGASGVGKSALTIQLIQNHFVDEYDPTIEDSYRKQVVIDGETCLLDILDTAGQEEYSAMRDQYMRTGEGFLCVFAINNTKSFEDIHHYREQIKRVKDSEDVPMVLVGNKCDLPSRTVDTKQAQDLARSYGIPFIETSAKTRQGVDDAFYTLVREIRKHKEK
KRAS G12S, sequence (P62937 whole entry): as the sequence (P62937 whole entry) above

Turning to `CCn1c(-c2cccnc2[C@H](C)OC)c2c3cc(ccc31)-c1csc(n1)C[C@H](NC(=O)[C@H](C(C)C)N(C)C(=O)N1CC(N(C)S(C)(=O)=O)C1)C(=O)N1CCC[C@H](N1)C(=O)OCC(C)(C)C2` (atropisomer, axis not shown) [Example A550], the IC50 lay in the range of 10 to 100 nM on NRAS Q61K; 10 to 100 nM on KRAS Q61H; 100 to 1000 nM at NRAS Q61R; 100 to 1000 nM at NRAS WT; 10 to 100 nM at KRAS G12C (setting [1]); 10 to 100 nM at NRAS G12C (setting [2]). For the same compound, the IC50 on KRAS G12D (setting [3]) is 1000 to 10000 nM; on KRAS G13D (setting [4]), 100 to 1000 nM; on KRAS G13C (setting [5]), 100 to 1000 nM; on KRAS G12S (setting [6]), 100 to 1000 nM; on KRAS WT (setting [7]) it was 100 to 1000 nM; at KRAS G12V (setting [8]), 100 to 1000 nM. In addition, the half-maximal inhibitory concentration (IC50) in the experiment with NCI-H358 (K-Ras G12C) and in the experiment on Capan-1 (K-Ras G12V) was 10 to 100 nM each time.

With `CCn1c(-c2cccnc2[C@H](C)OC)c2c3cc(ccc31)-c1csc(n1)C[C@H](NC(=O)[C@H](C(C)C)N(C)C(=O)N1CC(S(=O)(=O)NC)C1)C(=O)N1CCC[C@H](N1)C(=O)OCC(C)(C)C2` (atropisomer, axis not shown) [Example A549], the IC50 on NRAS Q61K fell in the range of 10 to 100 nM; on KRAS Q61H, 10 to 100 nM; at NRAS Q61R, 100 to 1000 nM; on NRAS WT, 100 to 1000 nM; on KRAS G12C (setting [1]) it was 10 to 100 nM; on NRAS G12C (setting [2]), 10 to 100 nM. Further, the IC50 on KRAS G12D (setting [3]), on KRAS G13D (setting [4]), on KRAS G13C (setting [5]), at KRAS G12S (setting [6]), on KRAS WT (setting [7]) and on KRAS G12V (setting [8]) was 100 to 1000 nM in each case. For the same compound, the IC50 with NCI-H358 (K-Ras G12C) and in the experiment with Capan-1 (K-Ras G12V) was 10 to 100 nM in each case.

On to `CCn1c(-c2cccnc2[C@H](C)OC)c2c3cc(ccc31)-c1csc(n1)C[C@H](NC(=O)N1CCCC1)C(=O)N1CCC[C@H](N1)C(=O)OCC(C)(C)C2` [Example A267], for which the IC50 was in the range of 100 to 1000 nM at NRAS Q61K; 100 to 1000 nM on KRAS Q61H; 100 to 1000 nM on NRAS Q61R; 100 to 1000 nM at NRAS WT; 100 to 1000 nM at KRAS G12C (KRAS G12C FRET data, IC50); 10 to 100 nM at NRAS G12C (NRAS G12C FRET data IC50, NRAS G12C). The IC50 against KRAS G12D (KRAS G12D FRET data, IC50) lay in the range of 100 to 1000 nM; against KRAS G13D (KRAS G13D FRET data IC50, KRAS G13D), 100 to 1000 nM; at KRAS G13C (KRAS G13C FRET data, IC50), 100 to 1000 nM; against KRAS G12S (KRAS G12S FRET data, IC50), 100 to 1000 nM; against KRAS WT (KRAS WT FRET data IC50, KRAS WT) it was 100 to 1000 nM; against KRAS G12V (KRAS G12V FRET data IC50, KRAS G12V), 100 to 1000 nM. For the same compound, the concentration for half-maximal inhibition (IC50) in the experiment with NCI-H358 (K-Ras G12C) and in the experiment on Capan-1 (K-Ras G12V) was 100 to 1000 nM throughout.

As to `CCn1c(-c2cccnc2[C@H](C)OC)c2c3cc(ccc31)-c1csc(n1)C[C@H](NC(=O)[C@H]1CCCO1)C(=O)N1CCC[C@H](N1)C(=O)OCC(C)(C)C2` (atropisomer, axis not shown) [Example A315], the concentration for half-maximal inhibition (IC50) on NRAS Q61K lay within 100 to 1000 nM; at KRAS Q61H, 100 to 1000 nM; at NRAS Q61R, 1000 to 10000 nM; on NRAS WT, 100 to 1000 nM; at KRAS G12C (setting [1]) it was 100 to 1000 nM; on NRAS G12C (setting [2]), 100 to 1000 nM. Moreover, the IC50 at KRAS G12D (setting [3]) fell in the range of 1000 to 10000 nM; on KRAS G13D (setting [4]), 100 to 1000 nM; on KRAS G13C (setting [5]) it was 100 to 1000 nM; on KRAS G12S (setting [6]), 100 to 1000 nM; at KRAS WT (setting [7]) it was 100 to 1000 nM; on KRAS G12V (setting [8]), 100 to 1000 nM. The half-maximal inhibitory concentration (IC50) with NCI-H358 (K-Ras G12C) and with Capan-1 (K-Ras G12V) was 100 to 1000 nM throughout.

With `CCn1c(-c2cccnc2[C@H](C)OC)c2c3cc(ccc31)-c1cc(O)cc(c1)C[C@H](NC(=O)[C@H](C(C)C)N(C)C(=O)C1CN(C)C1)C(=O)N1CCC[C@H](N1)C(=O)OCC(C)(C)C2` (atropisomer, axis not shown) [Example A124], the IC50 on NRAS Q61K lay within 100 to 1000 nM; at KRAS Q61H, 10 to 100 nM; on NRAS Q61R, 1000 to 10000 nM; on NRAS WT, 10 to 100 nM; at KRAS G12C (setting [1]), 100 to 1000 nM; at NRAS G12C (setting [2]), 100 to 1000 nM. Also, the 50% inhibitory concentration (IC50) fell in the range of 10 to 100 nM on KRAS G12D (setting [3]); 10 to 100 nM at KRAS G13D (setting [4]); 10 to 100 nM on KRAS G13C (setting [5]); 10 to 100 nM at KRAS G12S (setting [6]); 10 to 100 nM at KRAS WT (setting [7]); 100 to 1000 nM on KRAS G12V (setting [8]). The IC50 in the experiment with NCI-H358 (K-Ras G12C) fell in the range of 100 to 1000 nM; in the experiment on Capan-1 (K-Ras G12V) it was 1000 to 10000 nM.
